# Counter-ions that a name gives are not always drawn. Calls of active or inactive are those of the source. No cut-off for these calls is given here.
# Columns and labels:
# [1] = system: MDCK; assay: Cytotoxicity against dog MDCK cells after 48 hrs by MTT assay; assay type: functional, cell-based; conditions: Canis lupus familiaris
# [2] = Cytotoxicity against dog MDCK-II-BCRP cells after 48 hrs by MTT assay; assay type: functional, cell-based; conditions: Canis lupus familiaris
# [3] = target: T1, ATP-dependent translocase ABCB1 (Homo sapiens, UniProt P08183); assay: Inhibition of P-gp in human K562/A02 cells assessed as rescue of intracellular Rhodamine 123 accumulation at 5 uM incubated for 5 to 120 mins and measured by flow cytometry analysis; assay type: cell-based; conditions: k562/a02, 5 µM, time 5-120 min
# T1 sequence (P08183 whole entry): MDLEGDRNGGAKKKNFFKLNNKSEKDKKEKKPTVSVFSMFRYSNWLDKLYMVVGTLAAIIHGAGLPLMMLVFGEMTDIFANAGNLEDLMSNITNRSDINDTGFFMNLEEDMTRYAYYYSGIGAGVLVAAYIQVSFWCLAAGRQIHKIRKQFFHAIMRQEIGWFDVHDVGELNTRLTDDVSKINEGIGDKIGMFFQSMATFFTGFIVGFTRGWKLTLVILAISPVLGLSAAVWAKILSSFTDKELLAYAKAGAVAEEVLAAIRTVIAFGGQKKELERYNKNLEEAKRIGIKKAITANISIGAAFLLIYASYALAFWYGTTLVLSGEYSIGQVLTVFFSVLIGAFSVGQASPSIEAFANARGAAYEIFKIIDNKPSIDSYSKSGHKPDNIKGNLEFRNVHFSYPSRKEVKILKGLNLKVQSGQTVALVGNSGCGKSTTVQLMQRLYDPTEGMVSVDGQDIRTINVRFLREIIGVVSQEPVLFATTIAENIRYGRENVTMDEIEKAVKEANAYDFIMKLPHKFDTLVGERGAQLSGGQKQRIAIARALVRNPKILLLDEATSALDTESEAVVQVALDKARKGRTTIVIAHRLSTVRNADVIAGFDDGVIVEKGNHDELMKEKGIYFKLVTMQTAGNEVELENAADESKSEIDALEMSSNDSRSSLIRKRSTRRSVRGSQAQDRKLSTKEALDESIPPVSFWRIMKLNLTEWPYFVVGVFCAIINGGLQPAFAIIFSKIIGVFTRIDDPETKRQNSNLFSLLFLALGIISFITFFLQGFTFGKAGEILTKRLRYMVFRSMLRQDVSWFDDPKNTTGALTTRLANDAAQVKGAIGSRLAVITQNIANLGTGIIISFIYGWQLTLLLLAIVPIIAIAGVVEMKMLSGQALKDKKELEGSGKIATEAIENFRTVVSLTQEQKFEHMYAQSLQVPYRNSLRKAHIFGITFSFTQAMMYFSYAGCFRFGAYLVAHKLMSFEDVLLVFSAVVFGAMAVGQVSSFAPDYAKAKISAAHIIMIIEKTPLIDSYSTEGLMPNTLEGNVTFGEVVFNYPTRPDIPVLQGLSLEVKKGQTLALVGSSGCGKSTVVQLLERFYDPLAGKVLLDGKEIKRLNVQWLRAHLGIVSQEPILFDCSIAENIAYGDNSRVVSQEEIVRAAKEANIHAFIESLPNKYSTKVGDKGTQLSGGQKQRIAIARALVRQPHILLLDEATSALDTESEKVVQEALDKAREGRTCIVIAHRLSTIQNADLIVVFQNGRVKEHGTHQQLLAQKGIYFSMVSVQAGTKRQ
# [4] = target: T1, ATP-dependent translocase ABCB1; assay: Inhibition of P-gp (unknown origin)
# [5] = system: K562/A02; assay: Cytotoxicity against human K562/A02 cells after 48 hrs by MTT assay; assay type: functional, cell-based; conditions: K562/A02, 48 h
# [6] = system: A549; assay: Antiproliferative activity against human A549 cells highly expressing EGFR after 48 hrs by MTT assay; assay type: functional, cell-based; conditions: A549, 48 h
# [7] = system: K562; assay: Cytotoxicity against human K562 cells after 48 hrs by MTT assay; assay type: functional, cell-based; conditions: K562, 48 h
# [8] = Oral bioavailability in male Sprague-Dawley rat at 20 mg/kg,po pretreated with 3-4-chloropheny1-N-4-2-morpholinoethylpheny1-4-oxo-3,4-dihydrophthalazine-1-carboxamide at 10 mg/kg measured by LC/MS analysis; assay type: ADME, organism-based; conditions: in vivo
# [9] = Tmax in male Sprague-Dawley rat at 20 mg/kg,po pretreated with 3-4-chloropheny1-N-4-2-morpholinoethylpheny1-4-oxo-3,4-dihydrophthalazine-1-carboxamide at 10 mg/kg measured by LC/MS analysis; assay type: ADME, organism-based; conditions: in vivo
# [10] = Apparent permeability of compound in human Caco-2 cells from apical to basal after 60 mins by LC-MS/MS analysis; assay type: ADME, cell-based
# [11] = Bioavailability in male Sprague-Dawley rat at 5 mg/kg,iv measured by LC/MS analysis; assay type: ADME, organism-based; conditions: in vivo
# [12] = Cmax in male Sprague-Dawley rat at 20 mg/kg,po pretreated with 3-4-chloropheny1-N-4-2-morpholinoethylpheny1-4-oxo-3,4-dihydrophthalazine-1-carboxamide at 10 mg/kg measured by LC/MS analysis; assay type: ADME, organism-based; design: dose 20 mg/kg, route po; conditions: in vivo
# [13] = Apparent permeability of compound in human Caco-2 cells from basal to apical after 120 mins by LC-MS/MS analysis; assay type: ADME, cell-based
# [14] = Apparent permeability of compound in human Caco-2 cells from basal to apical after 30 mins by LC-MS/MS analysis; assay type: ADME, cell-based
# [15] = Apparent permeability of compound in human Caco-2 cells from apical to basal after 180 mins by LC-MS/MS analysis; assay type: ADME, cell-based
# [16] = Apparent permeability of compound in human Caco-2 cells from basal to apical after 60 mins by LC-MS/MS analysis; assay type: ADME, cell-based
# [17] = Apparent oral volume of distribution in male Sprague-Dawley rat at 20 mg/kg,po pretreated with 3-4-chloropheny1-N-4-2-morpholinoethylpheny1-4-oxo-3,4-dihydrophthalazine-1-carboxamide at 10 mg/kg measured by LC/MS analysis; assay type: ADME, organism-based; conditions: in vivo
# [18] = Apparent permeability of compound in human Caco-2 cells from basal to apical after 180 mins by LC-MS/MS analysis; assay type: ADME, cell-based
# [19] = Cmax in male Sprague-Dawley rat at 20 mg/kg,po measured by LC/MS analysis; assay type: ADME, organism-based; design: dose 20 mg/kg, route po; conditions: in vivo
# [20] = Tmax in male Sprague-Dawley rat at 20 mg/kg,po measured by LC/MS analysis; assay type: ADME, organism-based; conditions: in vivo
# [21] = Apparent permeability of compound in human Caco-2 cells from apical to basal after 90 mins by LC-MS/MS analysis; assay type: ADME, cell-based
# [22] = Apparent oral clearance in male Sprague-Dawley rat at 20 mg/kg,po pretreated with 3-4-chloropheny1-N-4-2-morpholinoethylpheny1-4-oxo-3,4-dihydrophthalazine-1-carboxamide at 10 mg/kg measured by LC/MS analysis; assay type: ADME, organism-based; conditions: in vivo
# [23] = system: Caco-2; assay: Cytotoxicity against human Caco-2 cells assessed as reduction in cell viability at 30 uM after 48 hrs by MTT assay; assay type: toxicity, cell-based; conditions: caco-2, 48 h
# [24] = Apparent permeability of compound in human Caco-2 cells from apical to basal after 30 mins by LC-MS/MS analysis; assay type: ADME, cell-based
# [25] = Apparent permeability of compound in human Caco-2 cells from apical to basal after 120 mins by LC-MS/MS analysis; assay type: ADME, cell-based
# [26] = Apparent permeability of compound in human Caco-2 cells from basal to apical after 90 mins by LC-MS/MS analysis; assay type: ADME, cell-based
# [27] = AUC (0 to t) in male Sprague-Dawley rat at 20 mg/kg,po pretreated with 3-4-chloropheny1-N-4-2-morpholinoethylpheny1-4-oxo-3,4-dihydrophthalazine-1-carboxamide at 10 mg/kg measured by LC/MS analysis; assay type: ADME, organism-based; design: dose 20 mg/kg, route po; conditions: in vivo
# [28] = in vivo; conditions: male, Sprague-Dawley, rat, po, 20 mg/kg
# [29] = target: T2, Broad substrate specificity ATP-binding cassette transporter ABCG2 (Homo sapiens, UniProt Q9UNQ0); assay: Inhibition of BCRP (unknown origin)
# T2 sequence (Q9UNQ0 whole entry): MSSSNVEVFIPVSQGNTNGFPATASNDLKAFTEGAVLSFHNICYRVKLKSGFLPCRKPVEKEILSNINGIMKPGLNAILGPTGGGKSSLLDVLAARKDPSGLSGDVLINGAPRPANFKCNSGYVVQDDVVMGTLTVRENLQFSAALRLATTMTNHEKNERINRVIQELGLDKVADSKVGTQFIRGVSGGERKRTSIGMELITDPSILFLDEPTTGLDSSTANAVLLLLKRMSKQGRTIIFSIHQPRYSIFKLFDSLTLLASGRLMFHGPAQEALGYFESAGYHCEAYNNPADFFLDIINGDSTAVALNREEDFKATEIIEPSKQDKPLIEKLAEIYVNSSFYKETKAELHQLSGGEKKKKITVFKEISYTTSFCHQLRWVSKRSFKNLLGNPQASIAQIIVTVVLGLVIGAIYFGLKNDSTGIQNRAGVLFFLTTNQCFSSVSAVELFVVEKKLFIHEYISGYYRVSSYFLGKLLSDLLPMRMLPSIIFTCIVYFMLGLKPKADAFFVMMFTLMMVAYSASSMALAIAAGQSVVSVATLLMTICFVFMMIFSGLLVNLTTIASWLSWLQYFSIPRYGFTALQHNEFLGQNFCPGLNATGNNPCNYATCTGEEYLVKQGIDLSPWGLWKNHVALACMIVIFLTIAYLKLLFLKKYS
# [30] = system: Caco-2; assay: Cytotoxicity against human Caco-2 cells assessed as reduction in cell viability at 50 uM after 48 hrs by MTT assay; assay type: toxicity, cell-based; conditions: caco-2, 48 h
# [31] = Reversal of BCRP-mediated multidrug resistance in dog MDCK-II-BCRP cells in presence of mitoxantrone after 48 hrs by MTT assay; assay type: cell-based; conditions: Canis lupus familiaris
# [32] = Reversal of P-gp-mediated multidrug resistance in human K562/A02 cells assessed as potentiation of adriamycin-induced cytotoxicity at 0.04 uM by measuring adriamycin IC50 after 48 hrs by MTT assay
# [33] = system: MDCK-II-BCRP; assay: Inhibition of BCRP-mediated multidrug resistance in dog MDCK-II-BCRP cells assessed as mitoxantrone accumulation at 0.1 to 5 uM pretreated 1.5 hrs followed by treated with mitoxantrone measured after 4 hrs by flow cytometry analysis; assay type: cell-based; conditions: Canis lupus familiaris, dose 0.1-5 µM
# [34] = target: T1, ATP-dependent translocase ABCB1; assay: Inhibition of P-gp-mediated multidrug resistance in human K562/A02 cells assessed as adriamycin accumulation at 0.5 to 5 uM pretreated 1.5 hrs followed by treated with adriamycin measured after 4 hrs by flow cytometry analysis; assay type: cell-based; conditions: k562/a02, 1.5 h, dose 0.5-5 µM
smiles,measurement,setting,value
COc1ccc2c3c([nH]c2c1)[C@H](CC(C)C)N1C(=O)[C@H](CCC(=O)OC(C)(C)C)NC(=O)[C@@H]1C3,IC50,[1],93.3 µM
same,IC50,[2],> 100 µM
COc1cc2ncnc(Nc3ccc(F)c(Cl)c3)c2cc1OCCCN1CCOCC1 [GEFITINIB],inhibition (INH),[3],Active
same,EC50,[4],> 1 µM
COc1ccc(CCN(C)CCCC(C#N)(c2ccc(OC)c(OC)c2)C(C)C)cc1OC (stereo not given),inhibition (INH),[3],Active
same,IC50,[5],39.9 µM
COc1ccc(CCNC(=O)c2nn(-c3ccc(Cl)cc3)c(=O)c3ccccc23)cc1OC,IC50,[6],> 100 µM
same,IC50,[5],> 100 µM
same,IC50,[7],> 100 µM
same,IC50,[1],> 100 µM
same,IC50,[2],> 100 µM
COc1cc2c(cc1OC)CN(CCc1ccc(NC(=O)c3cc(OC)c(OC)cc3NC(=O)c3cnc4ccccc4c3)cc1)CC2,IC50,[1],> 100 µM
same,IC50,[2],> 100 µM
O=C(NCCc1ccccc1)c1nn(-c2ccc(Cl)cc2)c(=O)c2ccccc12,IC50,[6],43.5 µM
same,IC50,[5],> 100 µM
same,IC50,[7],> 100 µM
same,IC50,[1],> 100 µM
same,IC50,[2],97.3 µM
O=C(Nc1ccc(N2CCOCC2)cc1)c1nn(-c2ccc(Cl)cc2)c(=O)c2ccccc12,IC50,[6],> 100 µM
same,IC50,[5],> 100 µM
same,IC50,[7],> 100 µM
same,IC50,[1],> 100 µM
same,IC50,[2],> 100 µM
CC(=O)O[C@H]1C(=O)[C@@]2(C)[C@H]([C@H](OC(=O)c3ccccc3)[C@]3(O)C[C@H](OC(=O)[C@H](O)[C@@H](NC(=O)c4ccccc4)c4ccccc4)C(C)=C1C3(C)C)[C@]1(OC(C)=O)CO[C@@H]1C[C@@H]2O [PACLITAXEL],bioavailability,[8],45.1%
same,Tmax,[9],2.51 h
same,Papp A→B at 1 h,[10],1.02 ×10⁻⁶ cm/s
same,F,[11],100%
same,Cmax,[12],652 ng/mL
same,Papp B→A at 2 h,[13],11.1 ×10⁻⁶ cm/s
same,Papp B→A at 0.5 h,[14],1.29 ×10⁻⁶ cm/s
same,Papp A→B at 3 h,[15],2.69 ×10⁻⁶ cm/s
same,Papp B→A at 1 h,[16],2.5 ×10⁻⁶ cm/s
same,Vd/F,[17],16 L
same,Papp B→A at 3 h,[18],19.4 ×10⁻⁶ cm/s
same,Cmax,[19],112 ng/mL
same,Tmax,[20],2 h
same,Papp A→B at 1.5 h,[21],1.98 ×10⁻⁶ cm/s
same,CL/F,[22],103 mL/min
same,Activity,[23],< 20%
same,Papp A→B at 0.5 h,[24],0.09 ×10⁻⁶ cm/s
same,Papp A→B at 2 h,[25],2.42 ×10⁻⁶ cm/s
same,Papp B→A at 1.5 h,[26],5.85 ×10⁻⁶ cm/s
same,AUC(0-t),[27],3130 ng·h/mL
same,half-life,[28],1.68 h
C#Cc1cccc(Nc2ncnc3cc(OCCOC)c(OCCOC)cc23)c1 [ERLOTINIB],EC50,[29],0.17 µM
same,EC50,[4],> 4.93 µM
CS(=O)(=O)CCNCc1ccc(-c2ccc3ncnc(Nc4ccc(OCc5cccc(F)c5)c(Cl)c4)c3c2)o1 [LAPATINIB],EC50,[29],3.2 µM
same,EC50,[4],> 2.79 µM
O=C(Nc1ccc(CCN2CCc3ccccc3C2)cc1)c1nn(-c2ccc(Cl)cc2)c(=O)c2ccccc12,IC50,[6],> 100 µM
same,IC50,[5],> 100 µM
same,IC50,[7],> 100 µM
same,IC50,[1],> 100 µM
same,IC50,[2],> 100 µM
O=C(Nc1ccc(CCN2CCOCC2)cc1)c1nn(-c2ccc(Cl)cc2)c(=O)c2ccccc12,inhibition (INH),[3],Active
same,IC50,[5],43.3 µM
same,Activity,[30],< 20%
same,EC50,[31],0.0982 µM
same,IC50,[32],7232 µM
same,IC50,[7],72.8 µM
same,inhibition,[33],Active
same,IC50,[1],87.7 µM
same,IC50,[2],81.2 µM
same,inhibition (INH),[34],Active
O=C(NCCCN1CCOCC1)c1nn(-c2ccc(Cl)cc2)c(=O)c2ccccc12,IC50,[6],73.4 µM
same,IC50,[5],> 100 µM
same,IC50,[7],> 100 µM
same,IC50,[1],> 100 µM
same,IC50,[2],> 100 µM
O=C(NCCc1cccc(F)c1)c1nn(-c2ccc(Cl)cc2)c(=O)c2ccccc12,IC50,[6],69.1 µM
same,IC50,[5],> 100 µM
same,IC50,[7],> 100 µM
same,IC50,[1],> 100 µM
same,IC50,[2],> 100 µM
O=C(NCCN1CCOCC1)c1nn(-c2ccc(Cl)cc2)c(=O)c2ccccc12,IC50,[6],> 100 µM
same,IC50,[5],> 100 µM
same,IC50,[7],> 100 µM
same,IC50,[1],> 100 µM
same,IC50,[2],> 100 µM
COc1cccc2c1C(=O)c1c(O)c3c(c(O)c1C2=O)C[C@@](O)(C(=O)CO)C[C@@H]3O[C@H]1C[C@H](N)[C@H](O)[C@H](C)O1 [DOXORUBICIN HYDROCHLORIDE],IC50,[5],78.3 µM
same,IC50,[7],0.92 µM
O=C(NCCc1cccc(Cl)c1)c1nn(-c2ccc(Cl)cc2)c(=O)c2ccccc12,IC50,[6],> 100 µM
same,IC50,[5],> 100 µM
same,IC50,[7],> 100 µM
same,IC50,[1],> 100 µM
same,IC50,[2],51.4 µM
